Values after ≈ are worked out from the molar mass of the structure shown. Active and inactive are the calls of the source.

The nature of data set [1]: Cytotoxicity against HEK293 cells measured after 20 hrs by resazurin dye based fluorescence assay. Type of data set: cell-based. To be noted: human.
Data set [2] has as its system Klebsiella pneumoniae. Briefly: Antibacterial activity against Klebsiella pneumoniae ATCC 700603 measured after 18 hrs. Type of data set: functional.
The test system of data set [3] is Candida albicans. In words: Antifungal activity against Candida albicans ATCC 90028 at 32 ug/ml measured after 24 hrs by resazurin dye based assay. Type of data set: functional. (Alamar Blue is a resazurin reagent that responds to reducing activity.)
The subject of data set [4] is Staphylococcus aureus. In words: Antibacterial activity against methicillin resistant Staphylococcus aureus ATCC 43300 measured after 18 hrs. Type of data set: functional.
The subject of data set [5] is Pseudomonas aeruginosa. In words: Antibacterial activity against Pseudomonas aeruginosa ATCC 27853 measured after 18 hrs. Type of data set: functional.
In data set [6] the test system is Acinetobacter baumannii. In words: Antibacterial activity against Acinetobacter baumannii ATCC 19606 measured after 18 hrs. Type of data set: functional. As to conditions: ATCC 19606 = CIP 70.34 = JCM 6841.
Data set [7] relates to Escherichia coli. In words: Antibacterial activity against Escherichia coli ATCC 25922 at 32 ug/ml measured after 18 hrs. Type of data set: functional.
Data set [8] has as its system Candida albicans. In words: Antifungal activity against Candida albicans ATCC 90028 measured after 24 hrs by resazurin dye based assay. Type of data set: functional.
Data set [9] deals with Pseudomonas aeruginosa. In words: Antibacterial activity against Pseudomonas aeruginosa ATCC 27853 at 32 ug/ml measured after 18 hrs. Type of data set: functional.
For data set [10], the system named is Escherichia coli. Briefly: Antibacterial activity against Escherichia coli ATCC 25922 measured after 18 hrs. Type of data set: functional.
Data set [11] deals with Cryptococcus neoformans. In words: Antifungal activity against Cryptococcus neoformans ATCC 208821 at 32 ug/ml measured after 24 hrs by resazurin dye based assay. Type of data set: functional.
Data set [12] relates to Cryptococcus neoformans. Briefly: Antifungal activity against Cryptococcus neoformans ATCC 208821 measured after 24 hrs by resazurin dye based assay. Type of data set: functional.
Data set [13] concerns Staphylococcus aureus. Briefly: Antibacterial activity against methicillin resistant Staphylococcus aureus ATCC 43300 at 32 ug/ml measured after 18 hrs. Type of data set: functional.
Data set [14] relates to Acinetobacter baumannii. Briefly: Antibacterial activity against Acinetobacter baumannii ATCC 19606 at 32 ug/ml measured after 18 hrs. Type of data set: functional, ATCC 19606 = CIP 70.34 = JCM 6841.
Data set [15] has as its system Klebsiella pneumoniae. Briefly: Antibacterial activity against Klebsiella pneumoniae ATCC 700603 at 32 ug/ml measured after 18 hrs. Type of data set: functional.
Where [16] appears, read: ATCC 19606 = CIP 70.34 = JCM 6841, dose 32.0 µg/ml.

As for `CC/C(=C(\c1ccccc1)c1ccc(OCCN(C)C)cc1)c1ccccc1` [TAMOXIFEN], the cytotoxic concentration (CC50) at 20 h in data set [1] is 9 µg/mL (≈ 24.2 µM).

For the compound `CCOc1ccc(-[n+]2cc(-c3ccc(-c4ccccc4)cc3)n3c2CCCCC3)cc1.[Br-]`, the MIC in data set [2] was > 32 µg/mL; in data set [4], 4 µg/mL; in data set [5] it was 32 µg/mL; in [6] it was > 32 µg/mL; in [8], 8 µg/mL; in [10], > 32 µg/mL. The same compound had an MIC in data set [12] of 16 µg/mL. For the same compound, the Activity in data set [3] (dose 32 µg/ml), in data set [7] (dose 32 µg/ml), in [9] (dose 32 µg/ml), in data set [11] (dose 32 µg/ml), in data set [13] (dose 32 µg/ml) and in data set [14] (dose 32 µg/ml) was >80% throughout. In [15] (dose 32 µg/ml), the Activity is reported as >80%. The cytotoxic concentration (CC50) at 20 h in [1] is 1.7 µg/mL.

As to `OC1(c2ccc(-c3ccccc3)cc2)C[N+](c2ccccc2)=C2CCCCCN21.[Br-]` (stereo unspecified), the minimal inhibitory concentration (MIC) is > 32 µg/mL in data set [2]; 32 µg/mL in data set [4]; > 32 µg/mL in data set [5]; > 32 µg/mL in [6]; > 32 µg/mL in [8]; > 32 µg/mL in [10]. Besides, the MIC in data set [12] was > 32 µg/mL. Moreover, the Activity in data set [3] (dose 32 µg/ml), in [7] (dose 32 µg/ml), in [9] (dose 32 µg/ml), in data set [11] (dose 32 µg/ml), in data set [13] (dose 32 µg/ml) and in [14] (dose 32 µg/ml) was >80% throughout. Also, the Activity in data set [15] (dose 32 µg/ml) was >80%. In addition, the CC50 at 20 h in data set [1] was found to be 2.3 µg/mL.

As for `OC1(c2ccc(-c3ccccc3)cc2)C[N+](c2ccc(OC(F)F)cc2)=C2CCCCCN21.[Br-]` (stereo unspecified), the MIC in data set [2] is > 32 µg/mL; in data set [4], 16 µg/mL; in data set [5], > 32 µg/mL; in [6], > 32 µg/mL; in data set [8], > 32 µg/mL; in [10], > 32 µg/mL. Also, the MIC in data set [12] is > 32 µg/mL. Besides, the Activity in data set [3] (dose 32 µg/ml), in [7] (dose 32 µg/ml), in data set [9] (dose 32 µg/ml), in data set [11] (dose 32 µg/ml), in data set [13] (dose 32 µg/ml) and in data set [14] (dose 32 µg/ml) was >80% in each case. For the same compound, the Activity in [15] (dose 32 µg/ml) was >80%. Besides, the cytotoxic concentration (CC50) at 20 h in data set [1] was determined as 5.8 µg/mL.

With `COc1ccc([N+]2=C3CCCCN3C(O)(c3ccc(-c4ccccc4)cc3)C2)cc1` (stereo unspecified), the outcome in data set [3] (dose 32.0 µg/ml), in data set [7] (dose 32.0 µg/ml), in data set [9] (dose 32.0 µg/ml), in [11] (dose 32.0 µg/ml), in data set [13] (dose 32.0 µg/ml) and in [14] (setting [16]) was inactive. Moreover, the outcome in data set [15] (dose 32.0 µg/ml) was inactive.

Take `Cc1ccc([N+]2=C3CCCCCN3C(O)(c3ccc(-c4ccccc4)cc3)C2)cc1.[Br-]` (stereo unspecified): the MIC in data set [2] is > 32 µg/mL; in data set [4], 16 µg/mL; in [5] it was > 32 µg/mL; in data set [6], > 32 µg/mL; in [8], > 32 µg/mL; in data set [10], > 32 µg/mL. The MIC in data set [12] is > 32 µg/mL. Also, the Activity in data set [3] (dose 32 µg/ml), in data set [7] (dose 32 µg/ml), in data set [9] (dose 32 µg/ml), in data set [11] (dose 32 µg/ml), in data set [13] (dose 32 µg/ml) and in data set [14] (dose 32 µg/ml) was >80% in each case. Moreover, the Activity in [15] (dose 32 µg/ml) is on record as >80%. In [1], this compound had a CC50 at 20 h of 2.7 µg/mL.

With `OC1(c2ccc(-c3ccccc3)cc2)C[N+](c2ccc(Br)cc2)=C2CCCCCN21.[Br-]` (stereo unspecified), the MIC in data set [2], in data set [4], in data set [5], in [6], in [8] and in data set [10] was > 32 µg/mL in each case. Moreover, the MIC in data set [12] is > 32 µg/mL. Also, the Activity in data set [3] (dose 32 µg/ml), in data set [7] (dose 32 µg/ml), in data set [9] (dose 32 µg/ml), in [11] (dose 32 µg/ml), in data set [13] (dose 32 µg/ml) and in data set [14] (dose 32 µg/ml) was >80% each time. In addition, the Activity in [15] (dose 32 µg/ml) is reported as >80%. Also, in data set [1], half-maximal cytotoxicity (CC50 at 20 h) was put at 6.1 µg/mL.

Regarding `OC1(c2ccc(-c3ccccc3)cc2)C[N+](c2ccc(Cl)cc2)=C2CCCCCN21.[Br-]` (stereo unspecified), the MIC in data set [2] is > 32 µg/mL; in data set [4], 16 µg/mL; in data set [5], 32 µg/mL; in [6] it was > 32 µg/mL; in data set [8] it was > 32 µg/mL; in data set [10], > 32 µg/mL. Besides, the MIC in [12] was > 32 µg/mL. Moreover, the Activity in data set [3] (dose 32 µg/ml), in data set [7] (dose 32 µg/ml), in [9] (dose 32 µg/ml), in [11] (dose 32 µg/ml), in data set [13] (dose 32 µg/ml) and in data set [14] (dose 32 µg/ml) was >80% throughout. Further, the Activity in [15] (dose 32 µg/ml) is recorded as >80%. The compound also came in with a half-maximal cytotoxic concentration (CC50) at 20 h in data set [1] of 3.9 µg/mL.

Regarding `CCOc1ccc([N+]2=C3CCCCCN3C(O)(c3ccc(-c4ccccc4)cc3)C2)cc1.[Br-]` (stereo unspecified), the minimum inhibitory concentration (MIC) in data set [2] was > 32 µg/mL; in [4], 16 µg/mL; in data set [5] it was > 32 µg/mL; in [6], > 32 µg/mL; in data set [8] it was > 32 µg/mL; in data set [10] it was > 32 µg/mL. In [12], this compound returned an MIC of 32 µg/mL. Further, the Activity in data set [3] (dose 32 µg/ml), in data set [7] (dose 32 µg/ml), in [9] (dose 32 µg/ml), in data set [11] (dose 32 µg/ml), in [13] (dose 32 µg/ml) and in [14] (dose 32 µg/ml) was >80% throughout. Moreover, the Activity in data set [15] (dose 32 µg/ml) is listed as >80%. In [1], this compound showed a half-maximal cytotoxic concentration (CC50) at 20 h of 2.4 µg/mL.

Take `CCc1ccc([N+]2=C3CCCCCN3C(O)(c3ccc(-c4ccccc4)cc3)C2)cc1.[Br-]` (stereo unspecified): the minimal inhibitory concentration (MIC) in data set [2] is > 32 µg/mL; in [4] it was 8 µg/mL; in data set [5], 32 µg/mL; in data set [6], > 32 µg/mL; in data set [8], > 32 µg/mL; in [10], > 32 µg/mL. The same compound came in with an MIC in data set [12] of 32 µg/mL. Moreover, the Activity in [3] (dose 32 µg/ml), in [7] (dose 32 µg/ml), in [9] (dose 32 µg/ml), in [11] (dose 32 µg/ml), in [13] (dose 32 µg/ml) and in data set [14] (dose 32 µg/ml) was >80% throughout. Moreover, the Activity in data set [15] (dose 32 µg/ml) is reported as >80%. This compound also had a CC50 at 20 h in data set [1] of 2.2 µg/mL.

As for `OC(Cn1cncn1)(Cn1cncn1)c1ccc(F)cc1F` [FLUCONAZOLE], the minimal inhibitory concentration (MIC) in data set [8] is 0.125 µg/mL (≈ 0.408 µM); in data set [12] it was 8 µg/mL (≈ 26.1 µM).

For COLISTIN, the minimal inhibitory concentration (MIC) in [2] is 0.25 µg/mL; in data set [5] it was 0.25 µg/mL; in data set [6] it was 0.25 µg/mL; in data set [10] it was 0.125 µg/mL.

On to `COc1ccc([N+]2=C3COCCN3C(O)(c3ccc(-c4ccccc4)cc3)C2)cc1` (stereo unspecified), for which the outcome in data set [3] (dose 32.0 µg/ml), in data set [7] (dose 32.0 µg/ml), in data set [9] (dose 32.0 µg/ml), in data set [11] (dose 32.0 µg/ml), in data set [13] (dose 32.0 µg/ml) and in data set [14] (setting [16]) was inactive. Moreover, in [15] (dose 32.0 µg/ml), the result was inactive.

As usually defined, the CC50 is the concentration giving 50% cytotoxicity. What is called MIC is the smallest concentration in the dilution series that meets the test's criterion for growth inhibition. A higher MIC goes with a need for much substance.

The record behind these values is ChEMBL document CHEMBL4765364, “Synthesis, antibacterial and antifungal activity of new 3-biphenyl-3H-Imidazo[1,2-a]azepin-1-ium bromides” (Eur J Med Chem, 2020).
